Data on 30 compounds can be found in patent publication US20160046597A1, “RORC2 INHIBITORS AND METHODS OF USE THEREOF” (PFIZER INC., priority 2013, published 2016).

Each structure is given as a SMILES string. A value given as a limit tells only on which side of the number the result lay.

One may read the IC50 as the point on the concentration scale where inhibition reaches its midpoint. Lower therefore signals greater potency in that assay.

The experiment concerns the target T1, RORC2 ligand binding domain (6-His-RORC2 LBD) (Homo sapiens, UniProt P51449).
T1 construct: made in house; host or cells: E. coli
T1 sequence (P51449 269-508 limits assumed): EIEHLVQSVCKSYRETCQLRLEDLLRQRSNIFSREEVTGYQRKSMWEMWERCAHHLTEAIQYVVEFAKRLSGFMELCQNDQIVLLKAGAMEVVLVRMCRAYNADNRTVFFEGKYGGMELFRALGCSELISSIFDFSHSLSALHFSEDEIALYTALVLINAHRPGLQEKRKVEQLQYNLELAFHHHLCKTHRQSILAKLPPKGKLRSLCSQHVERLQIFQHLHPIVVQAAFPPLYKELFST
Nature of the experiment: Co-activator recruitment by TR-FRET (RORC2 FRET). The following applies: 6.3 nM RORC2 LBD, 200 nM SRC1-2 coactivator peptide, 3 hours room temperature. It is filed as biochemical. The source says: The activity of compound of the invention can be determined by a co-activator recruitment by TR-FRET (time-resolved fluorescence resonance energy transfer) assay. […] Due to the long lasting fluorescence emission of Europium, the non-specific, short-lived fluorescence is time-resolved (TR) from the fluorescence of interest. Inhibitors of the interaction of receptor and coactivator peptide are detected by a decrease in TR-FRET signal.
Specifically, in one embodiment the aforementioned assay was performed as outlined below. The assay was carried out in black polystyrene, 384-well plates in a total assay volume of 50.5 μL. The assay buffer contained 50 mM TRIS-HCL pH 7.5, 1 mM NaCl, 2 mM MgCl2, 0.5 mg/mL bovine serum albumin, and 5 mM dithiothreitol.
`Cn1cc(C2CCN(C(=O)C(C)(C)CO)CC2)c2cc(NC(=O)c3cc(C#N)ccn3)ccc21` [Example 22, 4-cyano-N-{3-[1-(3-hydroxy-2,2-dimethylpropanoyl)piperidin-4-yl]-1-methyl-1H-indol-5-yl}pyridine-2-carboxamide] returned an IC50 of 384 nM. Compound `Cn1cc(C2CCN(C(=O)C3CCCC3)CC2)c2cc(NC(=O)N3CC(CC#N)C3)ccc21` [Example 61, 3-(cyanomethyl)-N-{3-[1-(cyclopentylcarbonyl)piperidin-4-yl]-1-methyl-1H-indol-5-yl}azetidine-1-carboxamide] showed an IC50 of 335 nM. The same measure for `Cn1cc(C2CCN(C(=O)CC3CC3)CC2)c2cc(NC(=O)c3cc(C#N)ccn3)ccc21` [Example 33, 4-cyano-N-{3-[1-(cyclopropylacetyl)piperidin-4-yl]-1-methyl-1H-indol-5-yl}pyridine-2-carboxamide]: 7.6 nM. On to `CC(C)CC(=O)N1CCC(c2cn(C)c3ccc(NC(=O)c4cccc(C#N)c4)cc23)CC1` [Example 2, 3-cyano-N-(1-methyl-3-(1-(3-methylbutanoyl)piperidin-4-yl)-1H-indol-5-yl)benzamide], for which the IC50 is 17.9 nM. The same measure for `N#Cc1ccc(F)c(C(=O)Nc2ccc3[nH]cc(C4CCN(C(=O)C5CCCC5)CC4)c3c2)c1` [Example 41, 5-cyano-N-{3-[1-(cyclopentylcarbonyl)piperidin-4-yl]-1H-indol-5-yl}-2-fluorobenzamide]: 327 nM; for `N#Cc1cccc(C(=O)Nc2ccc3[nH]cc(C4CCN(S(=O)(=O)C5CCCC5)CC4)c3c2)c1` [Example 86, 3-cyano-N-(3-(1-(cyclopentylsulfonyl)piperidin-4-yl)-1H-indol-5-yl)benzamide]: > 20000 nM. The same measure for `N#Cc1cccc(C(=O)Nc2ccc3onc(C4CCN(C(=O)C5CCCC5)CC4)c3c2)c1` [Example 83, 3-cyano-N-(3-(1-(cyclopentanecarbonyl)piperidin-4-yl)benzo[d]isoxazol-5-yl)benzamide]: 23.4 nM. The same measure for `Cn1cc(C2CCN(C(=O)C3CCCC3)CC2)c2cc(NC(=O)N3CC[C@H](C#N)C3)ccc21` [Example 60, (3S)-3-cyano-N-{3-[1-(cyclopentylcarbonyl)piperidin-4-yl]-1-methyl-1H-indol-5-yl}pyrrolidine-1-carboxamide]: 216 nM. `N#Cc1ccnc(C(=O)Nc2ccc3[nH]cc(C4CCN(C(=O)C5CCCC5)CC4)c3c2)c1` [Example 37, 4-cyano-N-(3-(1-(cyclopentanecarbonyl)piperidin-4-yl)-1H-indol-5-yl)picolinamide] registered an IC50 of 34.1 nM. The same measure for `Cn1cc(C2CCN(C(=O)[C@H]3CCC[C@H]3O)CC2)c2cc(NC(=O)c3cc(C#N)ccn3)ccc21` (relative stereo) [Example 13, 4-cyano-N-[3-(1-{[(1S*,2R*)-2-hydroxycyclopentyl]carbonyl}piperidin-4-yl)-1-methyl-1 2-carboxamide]: 19.8 nM; for `CN(CCC#N)C(=O)Nc1ccc2c(c1)c(C1CCN(C(=O)C3CCCC3)CC1)cn2C` [Example 59, 1-(2-cyanoethyl)-3-{3-[1-(cyclopentylcarbonyl)piperidin-4-yl]-1-methyl-1H-indol-5-yl}-1-methylurea]: 330 nM. `Cn1cc(C2CCN(C(=O)C3CCCC3)CC2)c2cc(NS(=O)(=O)Cc3ccccc3)ccc21` [Example 77, N-{3-[1-(cyclopentylcarbonyl)piperidin-4-yl]-1-methyl-1H-indol-5-yl}-1-phenylmethanesulfonamide] returned an IC50 of 50.5 nM. Consider `Cn1cc(C2CCN(C(=O)C3CCCOC3)CC2)c2cc(NC(=O)c3cc(C#N)ccn3)ccc21` (stereo not drawn) [Example 15, 4-cyano-N-{1-methyl-3-[1-(tetrahydro-2H-pyran-3-ylcarbonyl)piperidin-4-yl]-1H-indol-5-yl}pyridine-2-carboxamide], for which the IC50 stood at 15.9 nM. Next, `Cn1cc(C2CCN(C(=O)C[C@@H](O)C(F)(F)F)CC2)c2cc(NS(=O)(=O)c3ccc(F)cc3)ccc21` [Example 91, (R)-4-fluoro-N-(1-methyl-3-(1-(4,4,4-trifluoro-3-hydroxybutanoyl)piperidin-4-yl)-1H-indol-5-yl)benzenesulfonamide]: 9.8 nM; `Cc1c(NC(=O)c2cccc(C#N)c2)ccc2c1c(C1CCN(C(=O)C[C@@H](O)C(F)(F)F)CC1)cn2C` [Example 89, (R)-3-cyano-N-(1,4-dimethyl-3-(1-(4,4,4-trifluoro-3-hydroxybutanoyl)-piperidin-4-yl)-1H-indol-5-yl)benzamide]: 14.2 nM. Next, `Cn1cnc(S(=O)(=O)Nc2ccc3c(c2)c(C2CCN(C(=O)C4CCCC4)CC2)cn3C)c1` [Example 69, N-{3-[1-(cyclopentylcarbonyl)piperidin-4-yl]-1-methyl-1H-indol-5-yl}-1-methyl-1H-imidazole-4-sulfonamide]: 270 nM; `Cn1cc(C2CCN(C(=O)CC3CCOCC3)CC2)c2cc(NC(=O)c3cc(C#N)ccn3)ccc21` [Example 12, 4-cyano-N-{1-methyl-3-[1-(tetrahydro-2H-pyran-4-ylacetyl)piperidin-4-yl]-1H-indol-5-yl}pyridine-2-carboxamide]: 24.3 nM. Compound `O=C(Nc1ccc2[nH]cc(C3CCN(C(=O)C4CCCC4)CC3)c2c1)c1ccccc1F` [Example 38, N-{3-[1-(cyclopentylcarbonyl)piperidin-4-yl]-1H-indol-5-yl}-2-fluorobenzamide] showed an IC50 of 910 nM.

Take `Cn1cc(C2CCN(C(=O)C34CC(C3)C4)CC2)c2cc(NC(=O)c3cc(C#N)ccn3)ccc21` [Example 31, N-{3[1-(bicyclo[1.1.1]pent-1-ylcarbonyl)piperidin-4-yl]-1-methyl-1H-indol-5-yl}-4-cyanopyridine-2-carboxamide]: the IC50 came to 121 nM.

`O=C(Nc1ccc2[nH]cc(C3CCN(C(=O)C4CCCC4)CC3)c2c1)c1ccc(CO)cc1` [Example 45, N-{3-[1-(cyclopentylcarbonyl)piperidin-4-yl]-1H-indol-5-yl}-4-(hydroxymethyl)benzamide] displayed an IC50 of 3460 nM. The same measure for `Cn1cc(C2CCN(C(=O)c3ncccn3)CC2)c2cc(NC(=O)c3cc(C#N)ccn3)ccc21` [Example 24, 4-cyano-N-{1-methyl-3-[1-(pyrimidin-2-ylcarbonyl)piperidin-4-yl]-1H-indol-5-yl}pyridine-2-carboxamide]: 246 nM. In turn, `Cn1cc(C2CCN(C(=O)C3CCC(F)(F)C3)CC2)c2cc(NC(=O)c3cc(C#N)ccn3)ccc21` (stereo not drawn) [Example 8, 4-cyano-N-(3-{1-[(3,3-difluorocyclopentyl)carbonyl]piperidin-4-yl}-1-methyl-1H-indol-5-yl)pyridine-2-carboxamide] registered an IC50 of 7.3 nM. This IC50 is about 34-fold lower than that of the compound before. In turn, `Cc1cc(C(=O)N2CCC(c3cn(C)c4ccc(NC(=O)c5cc(C#N)ccn5)cc34)CC2)no1` [Example 10, 4-cyano-N-(1-methyl-3-{1-[(5-methylisoxazol-3-yl)carbonyl]piperidin-4-yl}-1H-indol-5-yl)pyridine-2-carboxamide] registered an IC50 of 42.9 nM. For the compound `Cn1cc(C2CCN(C(=O)CC(F)(F)F)CC2)c2cc(NC(=O)c3cc(C#N)ccn3)ccc21` [Example 35, 4-cyano-N-{1-methyl-3-[1-(3,3,3-trifluoropropanoyl)piperidin-4-yl]-1H-indol-5-yl}pyridine-2-carboxamide], the IC50 came out at 21.6 nM. `CC(C)c1cnc(N2CCC(c3cn(C)c4ccc(NC(=O)c5cccc(C#N)c5)cc34)CC2)nc1` [Example 82, 3-cyano-N-(3-[1-(5-isopropylpyrimidin-2-yl)piperidin-4-yl]-1-methyl-1H-indol-5-yl)benzamide] returned an IC50 of 3960 nM.

Consider `CC1CCN(S(=O)(=O)Nc2ccc3c(c2)c(C2CCN(C(=O)C4CCCC4)CC2)cn3C)CC1` [Example 93, N-(3-(1-(cyclopentanecarbonyl)piperidin-4-yl)-1-methyl-1H-indol-5-yl)-4-methylpiperidine-1-sulfonamide], for which the IC50 came to 4.9 nM. This IC50 lies about 810-fold lower than the previous one. The same measure for `Cn1cc(C2CCN(C(=O)c3cnccn3)CC2)c2cc(NC(=O)c3cc(C#N)ccn3)ccc21` [Example 26, 4-cyano-N-{1-methyl-3-[1-(pyrazin-2-ylcarbonyl)piperidin-4-yl]-1H-indol-5-yl}pyridine-2-carboxamide]: 87 nM.

Consider `Cn1cnc2cc(C(=O)Nc3ccc4[nH]cc(C5CCN(C(=O)C6CCCC6)CC5)c4c3)ccc21` [Example 52, N-{3-[1-(cyclopentylcarbonyl)piperidin-4-yl]-1H-indol-5-yl}-1-methyl-1H-benzimidazole-5-carboxamide], for which the IC50 worked out at 1110 nM. Take `Cn1cc(C2CCN(C(=O)C3CCOCC3)CC2)c2cc(NC(=O)c3cc(C#N)ccn3)ccc21` [Example 19, 4-cyano-N-{1-methyl-3-[1-(tetrahydro-2H-pyran-4-ylcarbonyl)piperidin-4-yl]-1H-indol-5-yl}pyridine-2-carboxamide]: the IC50 was determined as 40.6 nM. `Cn1cc(C2CCN(C(=O)C3CCCC3)CC2)c2cc(NS(=O)(=O)c3ccc(C#N)cc3)ccc21` [Example 71, 4-cyano-N-{3-[1-(cyclopentylcarbonyl)piperidin-4-yl]-1-methyl-1H-indol-5-yl}benzenesulfonamide] registered an IC50 of 23.9 nM.
